4 molecules from patent publication US11607458B2 (Georgia State University Research Foundation, Inc, priority 2017, dated 2023) can be followed below.

Where two headings read alike, the source gives them in different places. Where only a bound is given, the exact number is not on record here.

Experiment [1] can be described thus: HPLC studies of reaction kinetics of tetrazine prodrugs with cyclooctyne alkynes (Kobs, second-order rate constant k2). The class given is physicochemical. The conditions noted are these: alkyne 2b; 37° C.; PBS containing 10% DMSO; n = 3. Here is the method:
Stock solution preparation. Each of the tetrazine prodrugs (compounds 1b, 1c, and 1d) was dissolved in DMSO to afford a 500-μM stock solution. Each of the alkynes (compounds 2a, 2b, 2c, and 2d) was dissolved in DMSO to afford a 50-mM stock solution. Doxorubicin (Dox) and dansylamino compound (DA) 1.1b were each dissolved in DMSO to afford 1-mM stock solutions.
HPLC method A.: mobile phase A (10 mM NaH2PO4 in water, pH=5.0) and mobile phase B (ACN), flow rate: 1 mL/min, running time: 30 min, the gradient elution method: 25% B from 0 to 6 min, 25% to 50% B from 6 to 8 min, 50% B from 8 to 15 min, 50% to 99% B from 15 to 20 min, 99% B from 20 to 25 min, 99% to 25% B from 25 to 30 min. Detection wavelength: 256 nm. Column: Waters C18 3.5 μM, 4.6×100 mm. Injection volume: 20 μL.
HPLC method B: mobile phase A (10 mM NaH2PO4 in water, pH=5.0) and mobile phase B (ACN), flow rate: 1 mL/min, running time: 30 min, the gradient elution method: 30% B from 0 to 6 min, 30% to 50% B from 6 to 8 min, 50% B from 8 to 15 min, 50% to 99% B from 15 to 20 min, 99% B from 20 to 25 min. 99% to 30% B from 25 to 30 min. Detection wavelength 1: 256, detection wavelength 2: 337 nm. Column: Waters C18 3.5 μM, 4.6×100 mm. Injection volume: 20 μL.
General procedures HPLC studies of reaction kinetics. To three 20-ml vials with 9 mL PBS were added a solution of tetrazine prodrug (500 μL, 500 μM). 350 μL, 300 μL and 250 μL DMSO were added to vial respectively, and then 150 μL, 200 μL and 250 μL of the alkyne solution (50 mM in DMSO) were added to the vials to afford final concentrations of alkyne 0.75 mM, 1 mM and 1.25 mM in PBS (10% DMSO, 25 μM prodrug) respectively. The reaction was stirred at r.t or 37° C. respectively. Every 30 min about 500 μL reaction mixtures were taken out and 20 μL of them were injected into the HPLC by the autosampler; the rest of them were poured back to the reaction mixture. (Note: In the cases of prodrugs 1d or 1b reacting with alkyne 2d at 37° C., the final concentrations of 2d in the kinetic studies were 250 μM, 300 μM and 350 μM).
Determination of second-order rate constants. The reaction rate constant, kobs, was calculated for each concentration of the alkyne by fitting the prodrug areas versus time using eq. 1: Y=A exp(−kobst) eq. 1 where Y is the prodrug area, and t is time. The pseudo-first-order rate constant, kobs, was then plotted against the concentration of alkyne to yield the second-order rate constant using eq 2: kobs=k2[Alkyne] eq. 2 where k2 is the second-order rate constant.

Another experiment concerns HeLa cells. In words: Cytotoxicity studies in HeLa cells (MTT assay / crystal violet assay). Type of experiment: cell-based. The conditions noted are these: for IC50: 48 h, read-out: IC50 in Hela cell line; for effect on cell viability: 20 μM alkyne alone, HeLa cells. Here is the method:
Cell cultures. HeLa cells (ATCC) were used in the following cell culture studies. HeLa cells were maintained in DMEM (Dulbecco's Modified Eagle's Medium) supplemented with 10% fetal bovine serum (MidSci; S01520HI), and 1% penicillin-streptomycin (Sigma-Aldrich; P4333) at 37° C. with 5% CO2.
Cytotoxicity studies. Test compound was dissolved in DMSO to afford a stock solution. The final concentration of DMSO in the cell culture was 1% (v/v) in PBS. HeLa cells were seeded in 96-well plates one day before the experiment. Different concentrations of prodrug was added into the cell culture. The cells were then incubated for 48 h at 37° C. with 5% CO2. The cell viability was tested by the MTT assay described in Levitz, S. M., et al. J Infect Dis 1985, 152, 938-945. Specifically, after 48 h of incubation, 5 mg/mL MTT (3-(4,5-dimethylthiazol-2-yl)-2,5-diphenyltetrazolium bromide) was added into the cell culture. After incubation for 4 h, the supernatant was removed and 100 μL DMSO was added into the wells containing the cells. After shaking gently for 3 min, absorbance at 605 nm was read by a plate reader.
Cytotoxicity studies using crystal violet assay. The test compound was dissolved in DMSO to afford a stock solution. The final concentration of DMSO in cell culture was 1% (v/v) in PBS. HeLa cells were seeded in 96-well plates one day before the experiment. Different concentrations of the test compound were added into the cell culture. The cells were then incubated for 48 h at 37° C. with 5% CO2. Cell viability was tested by the crystal violet assay. Specifically, after 48 h of incubation, the cells were fixed in 100% methanol for 10 min and stained for 20 min with a 1% crystal violet solution in 50% methanol, followed by 5 repeated washings with PBS. 50 μL of DMSO was added to each well. After 20 min of incubation, the plates were analyzed in a microplate reader at 595 nm.
Similar results were observed when the alkyne concentration was decreased to 10 μM. For example, the IC50 of TPP-Dox prodrug 1c was about 2 μM in the presence of 2b, while the IC50 for Dox prodrug 1b was well over 10 μM in the presence of 10 μM of the alkyne trigger 2a (FIG. 3a). As controls, both the IC50 values of 1c and 2b alone were higher than 40 μM, and the treatment of 20 μM of alkyne 2a or 2b alone had no effect on cell viability. […] Without such an enrichment, the reaction is expected to be slow, resulting in a lower level of active Dox being released. […] Thus, mitochondrial enrichment leads to triggered release of the drug. The same concept is applicable to the delivery of drugs through other targeting approaches such as receptor-mediated drug delivery.
(In general: Tetrazolium assays rely on reduction of a dye to a coloured formazan, in cell work by metabolically active cells.)

[2] abbreviates: Homo sapiens, HeLa, compound alone.

As usually defined, the IC50 is the concentration that inhibits the measured activity by half. With `C#CCOc1ccc(-c2nnc(C(=O)O)nn2)cc1` [1a, 6-(4-(prop-2-yn-1-yloxy)phenyl)-1,2,4,5-tetrazine-3-carboxylic acid], the “k2 at 37° C. (second order rate constant)” value in experiment [1] worked out at 0.25 M⁻¹ s⁻¹. Also, the 50% inhibitory concentration (IC50) with HeLa cells (in the presence of 100 μM alkyne 2d) is over 100 µM. For `O=C(O)c1ccc(CC2(O)C#CCCCCC2)cc1` (stereo not shown) [2a, 4-((1-hydroxycyclooct-2-yn-1-yl)methyl)benzoic acid], the “effect on cell viability” value with HeLa cells was “no effect”. Take `O=C(NCCC[P+](c1ccccc1)(c1ccccc1)c1ccccc1)c1ccc(CC2(O)C#CCCCCC2)cc1.[Br-]` (stereo not shown) [2b, (3-(4-((1-hydroxycyclooct-2-yn-1-yl)methyl)benzamido)propyl)-triphenylphosphonium bromide]: the “effect on cell viability” value in the experiment with HeLa cells is on record as “no effect”. Besides, the IC50 was over 40 µM with HeLa cells (setting [2]) and over 50 µM in the experiment with HeLa cells (compound alone, listed as Alkyne 2b). As for `COc1cccc2c1C(=O)c1c(O)c3c(c(O)c1C2=O)C[C@@](O)(C(=O)CO)C[C@@H]3O[C@H]1C[C@H](N)[C@H](O)[C@H](C)O1` [Dox, Doxorubicin, reference compound], in the experiment with HeLa cells (setting [2]), the IC50 was about 1 µM.
